Experimental data from ChEMBL document CHEMBL1201862, “PubChem BioAssay data set” (2004).
The source made the active and inactive calls.

Legend:
[1] = system: HEK293; assay: inhibition of NOD1-driven NF-kB reporter – cell-based, luminescence, uHTS, primary screen (AID 1578); assay type: functional; settings: Homo sapiens
[2] = system: HEK293; assay: cells; assay type: functional, cell-based; settings: Homo sapiens
[3] = biological target: T1, Nucleotide-binding oligomerization domain-containing protein 2 (Homo sapiens, UniProt Q9HC29); assay: PubChem AID 2334; assay type: functional
T1 sequence (Q9HC29 whole entry, the tested form may be a part): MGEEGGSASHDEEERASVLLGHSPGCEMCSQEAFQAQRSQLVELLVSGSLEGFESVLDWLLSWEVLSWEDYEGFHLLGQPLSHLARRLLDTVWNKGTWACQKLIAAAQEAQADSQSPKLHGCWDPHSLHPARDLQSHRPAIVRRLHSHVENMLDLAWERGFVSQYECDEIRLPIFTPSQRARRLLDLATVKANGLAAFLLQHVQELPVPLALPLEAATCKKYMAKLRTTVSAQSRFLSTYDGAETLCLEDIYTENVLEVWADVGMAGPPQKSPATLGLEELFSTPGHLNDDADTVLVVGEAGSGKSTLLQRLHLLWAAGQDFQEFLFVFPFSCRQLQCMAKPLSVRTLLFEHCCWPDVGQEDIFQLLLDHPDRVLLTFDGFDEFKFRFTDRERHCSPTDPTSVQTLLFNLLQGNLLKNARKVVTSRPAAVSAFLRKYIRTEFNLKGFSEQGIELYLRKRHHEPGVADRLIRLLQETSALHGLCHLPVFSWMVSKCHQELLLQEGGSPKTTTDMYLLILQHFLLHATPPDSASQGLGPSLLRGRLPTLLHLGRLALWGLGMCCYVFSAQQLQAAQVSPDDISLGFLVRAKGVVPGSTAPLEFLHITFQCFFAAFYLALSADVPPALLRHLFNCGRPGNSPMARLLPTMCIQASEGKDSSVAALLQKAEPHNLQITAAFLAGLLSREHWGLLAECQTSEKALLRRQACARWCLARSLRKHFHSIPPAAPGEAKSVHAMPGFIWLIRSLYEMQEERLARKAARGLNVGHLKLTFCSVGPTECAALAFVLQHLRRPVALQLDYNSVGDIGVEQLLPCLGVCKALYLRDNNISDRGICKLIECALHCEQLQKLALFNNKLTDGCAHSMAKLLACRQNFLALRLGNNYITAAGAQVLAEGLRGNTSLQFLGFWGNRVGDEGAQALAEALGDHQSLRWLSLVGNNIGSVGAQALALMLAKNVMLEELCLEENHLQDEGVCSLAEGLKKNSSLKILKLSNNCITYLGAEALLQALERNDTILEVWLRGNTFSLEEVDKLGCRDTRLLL

[4] = biological target: T1, Nucleotide-binding oligomerization domain-containing protein 2; assay: inhibition of NOD2-driven NF-kB reporter – cell-based, luminescence, uHTS, HEK293 (AID 1566); assay type: functional
[5] = biological target: Tumor necrosis factor (Homo sapiens, UniProt P01375); assay: analog potency on TNFa NF-kB signaling – cell-based, revised, SAR follow-up (AID 2337); assay type: functional
Sequence of Tumor necrosis factor (P01375 whole entry): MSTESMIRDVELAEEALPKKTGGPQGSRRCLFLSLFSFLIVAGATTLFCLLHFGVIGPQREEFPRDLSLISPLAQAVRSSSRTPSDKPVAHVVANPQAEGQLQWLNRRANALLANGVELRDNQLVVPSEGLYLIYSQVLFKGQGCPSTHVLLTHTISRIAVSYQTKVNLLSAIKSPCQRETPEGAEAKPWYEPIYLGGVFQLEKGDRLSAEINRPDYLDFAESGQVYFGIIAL

[6] = system: HEK293; assay: NOD2 signaling inhibitors in MDP-stimulated cells, cell-based, uHTS, luminescence (AID 2001); assay type: functional; settings: Homo sapiens
[7] = biological target: T2, Cysteine protease ATG4B (Homo sapiens, UniProt Q9Y4P1); assay type: functional;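 further: Fluorescence-based dose-response confirmation assay measuring inhibition of ATG4B activity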
T2 sequence (Q9Y4P1 whole entry): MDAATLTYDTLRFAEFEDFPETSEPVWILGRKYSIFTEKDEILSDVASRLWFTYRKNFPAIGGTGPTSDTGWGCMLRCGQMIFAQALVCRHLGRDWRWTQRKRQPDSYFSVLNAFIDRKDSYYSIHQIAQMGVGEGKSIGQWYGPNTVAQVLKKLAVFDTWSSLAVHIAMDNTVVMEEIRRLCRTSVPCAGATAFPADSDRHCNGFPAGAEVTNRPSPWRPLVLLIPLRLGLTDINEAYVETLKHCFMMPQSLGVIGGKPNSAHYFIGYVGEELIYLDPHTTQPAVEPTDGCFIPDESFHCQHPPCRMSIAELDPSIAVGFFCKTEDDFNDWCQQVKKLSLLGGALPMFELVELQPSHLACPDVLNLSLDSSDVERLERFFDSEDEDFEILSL

[8] = system: HEK293; assay: cells; assay type: functional, cell-based; settings: Homo sapiens; remark: listed apart in the source
[9] = viability of uninfected HEp-2 cells – cell-based, HTS, cytotoxicity control for RSV inhibitor project, dose response (AID 2410); assay type: functional; settings: human respiratory syncytial virus
[10] = biological target: T3, Nucleotide-binding oligomerization domain-containing protein 1 (Homo sapiens, UniProt Q9Y239); assay: blockers of NOD1 pathway activity – revised, SAR follow-up (AID 2333); assay type: functional
T3 sequence (Q9Y239 whole entry): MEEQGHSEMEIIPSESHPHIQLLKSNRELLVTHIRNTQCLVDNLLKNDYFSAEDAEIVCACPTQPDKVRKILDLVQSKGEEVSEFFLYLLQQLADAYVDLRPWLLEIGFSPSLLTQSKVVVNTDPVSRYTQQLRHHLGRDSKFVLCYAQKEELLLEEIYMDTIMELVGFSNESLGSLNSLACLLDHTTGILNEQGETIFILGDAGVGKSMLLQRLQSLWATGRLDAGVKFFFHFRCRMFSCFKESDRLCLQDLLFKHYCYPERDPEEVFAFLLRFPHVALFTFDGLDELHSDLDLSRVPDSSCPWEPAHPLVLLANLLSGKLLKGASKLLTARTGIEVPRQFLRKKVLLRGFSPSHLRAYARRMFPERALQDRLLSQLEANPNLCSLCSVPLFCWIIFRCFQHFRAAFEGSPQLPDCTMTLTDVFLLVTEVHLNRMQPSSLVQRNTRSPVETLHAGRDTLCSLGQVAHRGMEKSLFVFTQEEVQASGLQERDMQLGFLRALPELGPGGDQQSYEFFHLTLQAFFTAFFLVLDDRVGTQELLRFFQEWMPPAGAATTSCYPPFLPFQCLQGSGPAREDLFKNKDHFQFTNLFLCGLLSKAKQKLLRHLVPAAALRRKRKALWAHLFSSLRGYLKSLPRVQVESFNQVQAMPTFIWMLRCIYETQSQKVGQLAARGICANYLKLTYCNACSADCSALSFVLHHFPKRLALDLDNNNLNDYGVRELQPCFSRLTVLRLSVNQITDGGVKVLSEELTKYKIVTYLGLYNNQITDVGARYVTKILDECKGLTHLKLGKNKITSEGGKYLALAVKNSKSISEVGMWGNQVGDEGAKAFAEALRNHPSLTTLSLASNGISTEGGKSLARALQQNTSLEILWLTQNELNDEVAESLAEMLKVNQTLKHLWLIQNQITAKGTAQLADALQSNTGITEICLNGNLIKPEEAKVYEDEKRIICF

[11] = biological target: Phospholipase A2 (Homo sapiens, UniProt P04054); assay type: functional;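 further: confirmatory dose-response counterscreen on phospholipase A2, testing hits that came from an ultra-high-throughput screen for ATG4B inhibitors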
Sequence of Phospholipase A2 (P04054 whole entry): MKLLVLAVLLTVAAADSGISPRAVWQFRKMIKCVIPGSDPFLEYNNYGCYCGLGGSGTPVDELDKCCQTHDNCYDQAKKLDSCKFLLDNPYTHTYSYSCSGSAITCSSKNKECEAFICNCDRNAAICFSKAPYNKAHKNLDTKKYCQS

[12] = system: HEK293; assay: cells; settings: Homo sapiens
[13] = system: HEK293; assay: cells; assay type: functional, cell-based; settings: Homo sapiens; remark: listed apart in the source
[14] = biological target: T4, Coagulation factor XII (Homo sapiens, UniProt P00748); assay: activated coagulation factor XII inhibitor potency, concentration-effect curve, cell-free (AID 716); assay type: functional
T4 sequence (P00748 whole entry): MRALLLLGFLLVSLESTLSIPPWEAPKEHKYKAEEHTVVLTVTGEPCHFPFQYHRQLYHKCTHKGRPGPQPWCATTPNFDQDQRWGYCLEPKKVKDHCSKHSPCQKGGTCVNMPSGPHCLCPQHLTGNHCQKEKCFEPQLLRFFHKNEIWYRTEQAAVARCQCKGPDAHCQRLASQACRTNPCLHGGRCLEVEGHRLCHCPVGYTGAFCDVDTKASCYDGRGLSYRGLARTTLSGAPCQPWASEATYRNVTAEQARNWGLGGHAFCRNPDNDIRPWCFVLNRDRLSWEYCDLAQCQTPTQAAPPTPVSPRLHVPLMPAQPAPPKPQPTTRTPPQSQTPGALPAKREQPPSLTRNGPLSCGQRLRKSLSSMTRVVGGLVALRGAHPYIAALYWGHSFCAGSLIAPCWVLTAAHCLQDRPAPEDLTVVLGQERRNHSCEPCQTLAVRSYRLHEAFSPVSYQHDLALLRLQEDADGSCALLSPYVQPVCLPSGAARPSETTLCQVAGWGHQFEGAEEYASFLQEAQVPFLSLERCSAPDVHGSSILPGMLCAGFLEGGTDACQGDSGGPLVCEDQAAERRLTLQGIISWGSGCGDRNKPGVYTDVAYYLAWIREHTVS

[15] = cells; assay type: functional
[16] = Vero E6 cell cytotoxicity, dose response, cytotoxicity control for non-replicating M. tuberculosis project, secondary assay (AID 492998); assay type: functional, VeroE6; settings: Vero C1008
[17] = MIN6 cell viability loss – mouse insulinoma, cytotoxicity control, dose response (AID 2122); assay type: functional;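 further: confirmatory high-throughput counterscreen run to flag cytotoxic compounds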
[18] = viability of HCT116 lacking mutant beta-catenin – cell-based, human colon tumor, dose response (AID 1045); assay type: functional;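 further: HCT116 colon tumor cells with beta catenin knocked out; cells exposed to compound for 60 hours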
[19] = HepG2 cell cytotoxicity, dose response, cytotoxicity control for non-replicating M. tuberculosis project (AID 489018); assay type: functional; settings: Mycobacterium tuberculosis
[20] = THP-1 cell cytotoxicity, dose response, cytotoxicity control for non-replicating M. tuberculosis project (AID 489025); assay type: functional
[21] = viability of PTEN-deleted HCT116 cells – cell-based, HCT116 PTEN knockout, dose response (AID 1047); assay type: functional;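 further: HCT116 colon tumor cells with PTEN knocked out; cells exposed to compound for 60 hours before readout; potency for loss of cell viability measured by luminescence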
[22] = decrease of insulin promoter-GFP reporter – imaging, high-content screening, mouse beta cells (AID 1628); assay type: functional; settings: MIN6

O=C(CSc1nc2ccccc2c(=O)n1Cc1ccccc1)Nc1ccc(Br)cc1C(=O)O
active: EC50 [1] 6.11 µM | IC50 [3] 7.04 µM | EC50 [4] 7.92 µM | IC50 [5] 5.7 µM | IC50 [7] 13.9 µM | CC50 [9] 11.1 µM | IC50 [10] 5.99 µM | IC50 [11] 12.1 µM
inactive: IC50 [2] > 20 µM | IC50 [6] 10.2 µM | IC50 [8] > 20 µM | IC50 [12] > 20 µM | IC50 [13] > 20 µM

CC(=O)Nc1nc(=O)c2ccccc2s1
inactive: IC50 [14] > 50 µM

COc1cccc(CNCCc2c[nH]c3ccccc23)c1OCc1ccc(F)cc1
active: IC50 [15] 16.4 µM | CC50 [16] 13.4 µM | IC50 [17] 3.37 µM | EC50 [18] 6.39 µM | CC50 [19] 9.79 µM | CC50 [20] 15.6 µM | EC50 [21] 5.74 µM | IC50 [22] 2.56 µM
